Experimental findings from patent US8999981B2, “3-amido-pyrrolo[3,4-C]pyrazole-5(1H, 4H,6H) carbaldehyde derivatives” (Pfizer Inc., priority 2007, dated 2015) are described below.

Bounds are passed on as bounds.

For this experiment, the target named is Protein Kinase C beta 2 (PKCβII) (Homo sapiens (Human), UniProt P05771). Kind of experiment: PKCβII coupled PK/LDH spectrophotometric kinase assay. Format: biochemical. The following applies: apparent Ki, ATP-competitive model (Morrison equation); 0.1 mM ATP, 30° C.; read-out: PKCb Ki.
Protein Kinase C beta 2 (PKCβII), sequence (P05771 other isoform, or with tags, fused parts or gaps): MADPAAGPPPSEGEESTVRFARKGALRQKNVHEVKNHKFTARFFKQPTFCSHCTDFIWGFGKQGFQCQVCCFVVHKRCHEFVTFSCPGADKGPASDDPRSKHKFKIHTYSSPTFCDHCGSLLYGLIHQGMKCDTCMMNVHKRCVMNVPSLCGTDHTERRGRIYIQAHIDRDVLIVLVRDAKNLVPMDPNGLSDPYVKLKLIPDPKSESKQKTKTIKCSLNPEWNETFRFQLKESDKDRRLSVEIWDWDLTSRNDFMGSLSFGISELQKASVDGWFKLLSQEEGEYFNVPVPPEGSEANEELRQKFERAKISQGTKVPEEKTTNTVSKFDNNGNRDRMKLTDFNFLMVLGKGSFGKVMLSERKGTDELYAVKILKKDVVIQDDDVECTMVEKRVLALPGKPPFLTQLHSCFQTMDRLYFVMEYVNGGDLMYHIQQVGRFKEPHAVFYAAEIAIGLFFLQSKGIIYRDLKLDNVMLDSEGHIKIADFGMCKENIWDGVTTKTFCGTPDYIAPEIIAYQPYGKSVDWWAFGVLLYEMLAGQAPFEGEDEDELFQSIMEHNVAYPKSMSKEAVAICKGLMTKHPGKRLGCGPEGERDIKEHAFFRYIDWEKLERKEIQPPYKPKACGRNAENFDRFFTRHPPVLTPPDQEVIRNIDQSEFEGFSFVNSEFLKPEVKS

As to `CC1CN(C(=O)N2Cc3c(NC(=O)c4ccccn4)n[nH]c3C2(C)C)C(C)CN1` (centres unmarked) [Example A46], the Ki came to 0.0362 µM.
The result for `CC1(C)c2[nH]nc(NC(=O)c3ccc4ccccc4n3)c2CN1C(=O)N1C[C@@H]2CCCN2C[C@@H]1Cc1ccccc1` [Example A13] reads 0.0277 µM.
Turning to `C[C@@H]1CN(C(=O)N2Cc3c(NC(=O)c4ccccn4)n[nH]c3C2(C)C)[C@@H](C)CN1CCC1CCOCC1` [Example A145, N-(5-((2R,5S)-2,5-dimethyl-1-(2(tetradehydro-2H-pyran-4-yl)methyl)piperazine-4-carbonyl)-6,6-dimethyl-1,4,5,6-tetrahydropyrrolo[3,4-c]pyrazol-3-yl)picolinamide], the Ki was 0.0176 µM.
The result for `COc1ccc(C(=O)Nc2n[nH]c3c2CN(C(=O)N2C[C@@H]4CCCN4C[C@@H]2Cc2ccccc2)C3(C)C)cc1` [Example A18] reads 0.0302 µM.
The figure for `Cc1nc(C)c(C(=O)Nc2n[nH]c3c2CN(C(=O)N2C[C@@H](C)N(CCCO)C[C@@H]2C)C3(C)C)o1` [Example A160] is 0.0249 µM.
Turning to `C[C@H]1CN2CCC[C@H]2CN1C(=O)N1Cc2c(NC(=O)c3c(F)ccc(F)c3F)n[nH]c2C1(C)C` [Example E13], the Ki worked out at 0.135 µM.
The figure for `CC(C)[C@H]1CN2CCC[C@H]2CN1C(=O)N1Cc2c(NC(=O)c3ccccn3)n[nH]c2C1(C)C` [Example A100] is 0.0141 µM; for `Cc1cc(C(=O)Nc2n[nH]c3c2CN(C(=O)N2C[C@@H]4CCCN4C[C@@H]2C)C3(C)C)nn1C` [Example A52] it is 0.149 µM.
The result for `CN1CCN(C(=O)N2Cc3c(NC(=O)c4cc5ccccc5o4)n[nH]c3C2(C)C)[C@@H](Cc2ccccc2)C1` [Example A7] reads 0.124 µM; that for `C[C@@H]1CN(C(=O)N2Cc3c(NC(=O)c4ccccn4)n[nH]c3C2(C)C)[C@@H](C)CN1C` [Example A113], 0.0139 µM.
The figure for `C[C@H]1CN(C)C2(CCC2)CN1C(=O)N1Cc2c(NC(=O)c3ccccn3)n[nH]c2C1(C)C` [Example A133] is 0.00858 µM; for `C[C@H]1CN2CCC[C@H]2CN1C(=O)N1Cc2c(NC(=O)c3cccc(OC(F)(F)F)c3)n[nH]c2C1(C)C` [Example A45] it is 0.104 µM.
In the case of `COCCCN1C[C@H](C)N(C(=O)N2Cc3c(NC(=O)c4ocnc4C)n[nH]c3C2(C)C)C[C@H]1C` [Example F8], the Ki came out at 0.0956 µM.
With `CC1(C)c2[nH]nc(NC(=O)c3ccc4ccccc4n3)c2CN1C(=O)N1C[C@@H]2CCCN2C[C@@H]1Cc1ccccc1` [Example A14], the Ki was 0.0161 µM.
The figure for `CC1(C)c2[nH]nc(NC(=O)c3ccccc3Cl)c2CN1C(=O)N1C[C@@H]2CCCN2C[C@@H]1Cc1ccccc1` [Example A19] is 0.0914 µM; for `CC1CN(C(=O)N2Cc3c(NC(=O)c4ccccn4)n[nH]c3C2(C)C)CCN1CC1CC1` (centres unmarked) [Example A127] it is 0.134 µM.
The result for `C[C@@H]1CN(C(=O)N2Cc3c(NC(=O)c4cc(C5CC5)n[nH]4)n[nH]c3C2(C)C)[C@@H](C)CN1CC1CCOCC1` [Example F17] reads 0.0194 µM; that for `C[C@H]1CN2CCC[C@H]2CN1C(=O)N1Cc2c(NC(=O)c3ccccc3F)n[nH]c2C1(C)C` [Example A32], 0.0924 µM.
The result for `CN1CCN(C(=O)N2Cc3c(NC(=O)c4cccs4)n[nH]c3C2(C)C)[C@@H](Cc2ccccc2)C1` [Example A6] reads 0.187 µM; that for `C[C@H]1CN2CCC[C@H]2CN1C(=O)N1Cc2c(NC(=O)c3cc(Cl)ccn3)n[nH]c2C1(C)C` [Example A68], 0.0213 µM; that for `C[C@H]1CN2CCC[C@H]2CN1C(=O)C1Cc2c(NC(=O)c3cc(Cl)cc(Cl)c3)n[nH]c2C1(C)C` (some centres unmarked) [Example A30], 0.0229 µM.
As for `C[C@H]1CN2CCC[C@H]2CN1C(=O)N1Cc2c(NC(=O)c3cscn3)n[nH]c2C1(C)C` [Example A44], the Ki worked out at 0.0435 µM.
The figure for `C[C@@H]1CN(C(=O)N2Cc3c(NC(=O)c4ccc(C#N)cn4)n[nH]c3C2(C)C)[C@@H](C)CN1C1CCOCC1` [Example G1, 5-cyano-N-(5-{[(2S,5R)-2,5-dimethyl-4-(tetrahydro-2H-pyran-4-yl)piperazin-1-yl]carbonyl}-6,6-dimethyl-1,4,5,6-tetrahydropyrrolo[3,4-c]pyrazol-3-yl)pyridine-2-carboxamide] is < 0.01 µM; for `COCCN1C[C@H](C)N(C(=O)N2Cc3c(NC(=O)c4ccc(F)cn4)n[nH]c3C2(C)C)C[C@H]1C` [Example A164] it is 0.0569 µM.
The result for `C[C@H](CCO)N1C[C@H](C)N(C(=O)N2Cc3c(NC(=O)c4ccccn4)n[nH]c3C2(C)C)C[C@H]1C` [Example A154] reads 0.0251 µM; that for `CC[C@H](C)[C@H]1CN2CCC[C@@H]2CN1C(=O)N1Cc2c(NC(=O)c3ccccn3)n[nH]c2C1(C)C` [Example A80], 0.129 µM.
The result for `COc1cccc(C(=O)Nc2n[nH]c3c2CN(C(=O)N2C[C@@H]4CCCN4C[C@@H]2Cc2ccccc2)C3(C)C)c1` [Example A17] reads 0.0161 µM; that for `C[C@@H]1CN(C(=O)N2Cc3c(NC(=O)c4cc(C5CC5)on4)n[nH]c3C2(C)C)[C@@H](C)CN1C` [Example A140], 0.0268 µM.
Take `CC1(C)c2[nH]nc(NC(=O)c3cccc(Oc4ccccc4)c3)c2CN1C(=O)N1C[C@@H]2CCCN2C[C@@H]1Cc1ccccc1` [Example A3]: the Ki is 0.0368 µM.
As for `COCCCN1C[C@H](C)N(C(=O)N2Cc3c(NC(=O)c4ccc(F)cn4)n[nH]c3C2(C)C)C[C@H]1C` [Example A163], the Ki worked out at 0.0245 µM.
The result for `CC[C@H]1CN2CCC[C@@H]2CN1C(=O)N1Cc2c(CC(=O)c3ccccn3)n[nH]c2C1(C)C` [Example A90] reads 0.107 µM; that for `C[C@H]1CN2CCC[C@H]2CN1C(=O)N1Cc2c(NC(=O)c3c(F)cccc3Cl)n[nH]c2C1(C)C` [Example A38], 0.181 µM; that for `C[C@H]1CN2CCC[C@H]2CN1C(=O)N1Cc2c(NC(=O)c3ccc4cnccc4n3)n[nH]c2C1(C)C` [Example E4], 0.00617 µM.
The result for `Cc1cc(C(=O)Nc2n[nH]c3c2CN(C(=O)N2C[C@@H]4CCCN4C[C@@H]2C)C3(C)C)n(C)n1` [Example A42] reads 0.0679 µM; that for `Cc1nc(C)c(C(=O)Nc2n[nH]c3c2CN(C(=O)N2C[C@@H]4CCCN4C[C@@H]2C)C3(C)C)o1` [Example E11], 0.0289 µM; that for `C[C@H]1CN2CCC[C@H]2CN1C(=O)N1Cc2c(NC(=O)c3ccc(OC(F)(F)F)cc3)n[nH]c2C1(C)C` [Example A41], 0.0454 µM.
Regarding `Cc1cnc(C(=O)Nc2n[nH]c3c2CN(C(=O)N2C[C@@H]4CCCN4C[C@@H]2C)C3(C)C)cn1` [Example E2], the Ki was 0.0729 µM.
The result for `CC1(C)c2[nH]nc(NC(=O)c3ccccn3)c2CN1C(=O)N1C[C@@H]2CCCN2C[C@@H]1CO` [Example A78] reads 0.165 µM; that for `Cc1cc(C(=O)Nc2n[nH]c3c2CN(C(=O)N2C[C@@H](C)N(CC4CCOCC4)C[C@@H]2C)C3(C)C)on1` [Example F21], 0.0381 µM.
`Cc1noc(C)c1CC(=O)Nc1n[nH]c2c1CN(C(=O)N1C[C@@H](C)N(CC3CCOCC3)C[C@@H]1C)C2(C)C` [Example F59]: the Ki was determined as 0.02 µM.
The result for `CCCN1C[C@H](C)N(C(=O)N2Cc3c(NC(=O)c4ccccn4)n[nH]c3C2(C)C)C[C@H]1CCO` [Example A83] reads 0.00953 µM; that for `CC(C)C[C@H]1CN2CCC[C@H]2CN1C(=O)N1Cc2c(NC(=O)c3ccc4ccccc4n3)n[nH]c2C1(C)C` [Example A12], 0.103 µM.
The result for `C[C@H]1CN2CCC[C@H]2CN1C(=O)N1Cc2c(NC(=O)c3cccc(F)c3F)n[nH]c2C1(C)C` [Example A63] reads 0.0654 µM; that for `CC(C)[C@H]1CN(C)C(C)CN1C(=O)N1Cc2c(NC(=O)c3ccc(Cl)cn3)n[nH]c2C1(C)C` (some centres unmarked) [Example A135], 0.0512 µM.
